Source: US7232831B2, “Tetrahydro-β-carboline compounds and use thereof” (MediQuest Therapeutics, Inc., priority 2004, dated 2007)

System: rats
Test: Forced Swimming Test (Depression Test Model)
Format: in vivo
Conditions: delivered orally before swim test, all three doses 0.3, 3 and 30 mg/kg, observed for 6 minutes
Description: Forced Swimming Test (Depression Test Model)—Total immobility time of rats can be assessed during a forced swimming test Porsolt, R. D., Anton, G., Blavet, N., Jalfre, M. Behavioral despair in rats, a new model sensitive to antidepressant treatments. Eur. J Pharmacol. 1978, 47, 379-391. A shortened immobility period reflects anti-depressant-like effects of a test compound. MQT compounds were delivered orally to rats before the swim test.

Structure (SMILES) | Total immobility time during forced swimming test
NCCCNC(=O)C1CCCN(C(=O)C2Cc3c([nH]c4ccccc34)CN2)C1 (centres unmarked) [MQT 1] | reduction in immobility
NCCCNCC1CCCN(CC2Cc3c([nH]c4ccccc34)CN2)C1 (centres unmarked) [MQT 2] | reduction in immobility
